Assay results from ChEMBL document CHEMBL1201862, “PubChem BioAssay data set” (2004).
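Growth conditions: 96-well plates. Treatment: test compound, 48 hours, 5 concentrations. Analysis: linear interpolation between bracketing concentrations; unreached endpoints set to highest concentration. The concentration for 50% growth inhibition is given as GI50.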 Active and inactive are the calls of the source. No stated cut-off is given here; in the data, active = GI50 up to about 1.1 µM and inactive = higher.

Columns and labels:
Experiment in all cases: inhibition of tumour cell growth, NCI panel, 48 h
HOP-92 = tested on: HOP-92
SF-295 = tested on: SF-295
K562 = tested on: K562
OVCAR-5 = tested on: OVCAR-5
SK-MEL-28 = tested on: SK-MEL-28
SW-620 = tested on: SW-620
SK-MEL-5 = tested on: SK-MEL-5
HT-29 = tested on: HT-29
ACHN = tested on: ACHN
A549 = tested on: A549
HOP-62 = tested on: HOP-62
MDA-MB-435 = tested on: MDA-MB-435
COLO 205 = tested on: COLO 205
T47D = tested on: T47D
TK-10 = tested on: TK-10
MDA-MB-231 = tested on: MDA-MB-231
MDA-N = tested on: MDA-N
SNB-75 = tested on: SNB-75
RPMI-8226 = tested on: RPMI-8226

Compound	GI50 (HOP-92)	GI50 (SF-295)	GI50 (K562)	GI50 (OVCAR-5)	GI50 (SK-MEL-28)	GI50 (SW-620)	GI50 (SK-MEL-5)	GI50 (HT-29)	GI50 (ACHN)	GI50 (A549)	GI50 (HOP-62)	GI50 (MDA-MB-435)	GI50 (COLO 205)	GI50 (T47D)	GI50 (TK-10)	GI50 (MDA-MB-231)	GI50 (MDA-N)	GI50 (SNB-75)	GI50 (RPMI-8226)
c1cc(-c2ccc(-c3ccc(-c4ccc(-c5ccncc5)o4)cc3)o2)ccn1	30.5 µM (inactive)	15 µM (inactive)	15.7 µM (inactive)	24.9 µM (inactive)	21.2 µM (inactive)	28.2 µM (inactive)	13.2 µM (inactive)	11.8 µM (inactive)	24.6 µM (inactive)	18.4 µM (inactive)	22.1 µM (inactive)	15.5 µM (inactive)	16.1 µM (inactive)	11.4 µM (inactive)	17 µM (inactive)	29 µM (inactive)	16.7 µM (inactive)	18.9 µM (inactive)	–
CCCN1C(=O)/C(=C\c2ccc(OC)c(OC)c2)S/C1=N\c1ccccc1	50.1 µM (inactive)	24.2 µM (inactive)	> 100 µM (inactive)	> 100 µM (inactive)	> 100 µM (inactive)	> 100 µM (inactive)	> 100 µM (inactive)	> 100 µM (inactive)	> 100 µM (inactive)	> 100 µM (inactive)	17.6 µM (inactive)	> 100 µM (inactive)	> 100 µM (inactive)	> 100 µM (inactive)	31.1 µM (inactive)	> 100 µM (inactive)	> 100 µM (inactive)	–	> 100 µM (inactive)
Cc1ccc2c(O)cc(-c3ccc(C)s3)nc2n1	5.21 µM (inactive)	0.267 µM (active)	0.423 µM (active)	1.91 µM (inactive)	–	0.106 µM (active)	0.139 µM (active)	0.526 µM (active)	0.731 µM (active)	0.531 µM (active)	1.07 µM (active)	0.0264 µM (active)	0.459 µM (active)	0.506 µM (active)	19.3 µM (inactive)	1.73 µM (inactive)	0.0213 µM (active)	0.254 µM (active)	0.248 µM (active)
CN(CCc1ccc(Cl)c(Cl)c1)[C@H]1CCCC[C@H]1N1CCCC1	> 100 µM (inactive)	> 100 µM (inactive)	> 100 µM (inactive)	> 100 µM (inactive)	> 100 µM (inactive)	> 100 µM (inactive)	> 100 µM (inactive)	> 100 µM (inactive)	> 100 µM (inactive)	> 100 µM (inactive)	> 100 µM (inactive)	> 100 µM (inactive)	> 100 µM (inactive)	> 100 µM (inactive)	> 100 µM (inactive)	> 100 µM (inactive)	> 100 µM (inactive)	–	> 100 µM (inactive)
O=C(Nc1cc2c(=O)[nH]c3ccccc3c2oc1=O)c1cnccn1	> 100 µM (inactive)	> 100 µM (inactive)	> 100 µM (inactive)	> 100 µM (inactive)	> 100 µM (inactive)	> 100 µM (inactive)	> 100 µM (inactive)	> 100 µM (inactive)	> 100 µM (inactive)	> 100 µM (inactive)	–	> 100 µM (inactive)	> 100 µM (inactive)	> 100 µM (inactive)	> 100 µM (inactive)	> 100 µM (inactive)	> 100 µM (inactive)	> 100 µM (inactive)	–
O=C1NCCN1/N=C/c1c(Cl)n(-c2ccccc2)c2ccccc12	23.6 µM (inactive)	29.4 µM (inactive)	24.5 µM (inactive)	44.1 µM (inactive)	–	21.1 µM (inactive)	15.5 µM (inactive)	17.4 µM (inactive)	23.9 µM (inactive)	23.9 µM (inactive)	94.4 µM (inactive)	12.4 µM (inactive)	14.3 µM (inactive)	15.2 µM (inactive)	14.8 µM (inactive)	13.6 µM (inactive)	9.25 µM (inactive)	21.1 µM (inactive)	22.4 µM (inactive)
O=P1(Oc2ccccc2)NCc2ncccc2O1 (configuration not stated)	> 100 µM (inactive)	> 100 µM (inactive)	> 100 µM (inactive)	> 100 µM (inactive)	> 100 µM (inactive)	> 100 µM (inactive)	> 100 µM (inactive)	> 100 µM (inactive)	> 100 µM (inactive)	> 100 µM (inactive)	> 100 µM (inactive)	> 100 µM (inactive)	> 100 µM (inactive)	> 100 µM (inactive)	–	> 100 µM (inactive)	> 100 µM (inactive)	> 100 µM (inactive)	> 100 µM (inactive)
CCCCCCCCOC(=O)C12Oc3ccc(-c4ccc5c(c4O)C(=O)C4=C(O)CC(C)C(O)C4(C(=O)OCCCCCCCC)O5)c(O)c3C(=O)C1=C(O)CC(C)C2O (configuration not stated)	8.45 µM (inactive)	8.41 µM (inactive)	2.93 µM (inactive)	24 µM (inactive)	18.2 µM (inactive)	6.85 µM (inactive)	14.7 µM (inactive)	27.2 µM (inactive)	5.61 µM (inactive)	4.79 µM (inactive)	–	9.86 µM (inactive)	20.9 µM (inactive)	16.2 µM (inactive)	15.5 µM (inactive)	23.8 µM (inactive)	18 µM (inactive)	4.99 µM (inactive)	–
